The text below walks through data of patent US20260048068A1, “PHENYLUREA DERIVATIVES AND THEIR PHARMACEUTICAL USES” (HANGZHOU BIO-SINCERITY PHARMA-TECH CO., LTD., priority 2022, published 2026).

Where only a bound is given, the exact number is not on record here.

The target of one data set is histamine H3 receptor (Homo sapiens, UniProt Q9Y5N1). In words: FLPPR assay, antagonistic activity at histamine H3 receptor. It counts as cell-based. The following applies: for inhibition at 0.005 µM: 5 nM compound, read-out: % Inh-AVERAGE @ 5 nM; for inhibition at 0.05 µM: 50 nM compound, read-out: % Inh-AVERAGE @ 50 nM. Here is the method:
The FLPPR assay (NIH Assay Guidance Manual: HTS Assay Validation-Section 4.3. Analysis (Potency), htpps://www.ncbi.nlm.nih.gov/books/NBK83783) was performed using SUVN-G3031 as the positive control, and 13 target compounds were tested for the antagonistic activity target to histamine H3 receptor.

A further data set deals with hERG channel (Homo sapiens, UniProt Q12809). Put plainly: in vitro. The source says: In cardiomyocytes, inhibition of the delayed rectifier potassium current (IKr) channel protein encoded by the human Ether-a-go-go Related Gene (hERG) is the most importane mechanism by which drugs lead to prolongation of the QT interval. hERG is characterized by a specific molecular structure, which allows it to be inhibited by different structures, leading to severe arrhythmias. Statistically, 25-40% of lead compounds show varying degrees of hERG-related toxicity. early evaluation of the effects of compounds on hERG is crucial in the drug development process. The inhibition rate of compounds on hERG channels is examined by manual membrane clamp technique on HEK293 cell line whichi stably ecpressing hERG ion channels.
Chain of hERG channel (Q12809 whole entry): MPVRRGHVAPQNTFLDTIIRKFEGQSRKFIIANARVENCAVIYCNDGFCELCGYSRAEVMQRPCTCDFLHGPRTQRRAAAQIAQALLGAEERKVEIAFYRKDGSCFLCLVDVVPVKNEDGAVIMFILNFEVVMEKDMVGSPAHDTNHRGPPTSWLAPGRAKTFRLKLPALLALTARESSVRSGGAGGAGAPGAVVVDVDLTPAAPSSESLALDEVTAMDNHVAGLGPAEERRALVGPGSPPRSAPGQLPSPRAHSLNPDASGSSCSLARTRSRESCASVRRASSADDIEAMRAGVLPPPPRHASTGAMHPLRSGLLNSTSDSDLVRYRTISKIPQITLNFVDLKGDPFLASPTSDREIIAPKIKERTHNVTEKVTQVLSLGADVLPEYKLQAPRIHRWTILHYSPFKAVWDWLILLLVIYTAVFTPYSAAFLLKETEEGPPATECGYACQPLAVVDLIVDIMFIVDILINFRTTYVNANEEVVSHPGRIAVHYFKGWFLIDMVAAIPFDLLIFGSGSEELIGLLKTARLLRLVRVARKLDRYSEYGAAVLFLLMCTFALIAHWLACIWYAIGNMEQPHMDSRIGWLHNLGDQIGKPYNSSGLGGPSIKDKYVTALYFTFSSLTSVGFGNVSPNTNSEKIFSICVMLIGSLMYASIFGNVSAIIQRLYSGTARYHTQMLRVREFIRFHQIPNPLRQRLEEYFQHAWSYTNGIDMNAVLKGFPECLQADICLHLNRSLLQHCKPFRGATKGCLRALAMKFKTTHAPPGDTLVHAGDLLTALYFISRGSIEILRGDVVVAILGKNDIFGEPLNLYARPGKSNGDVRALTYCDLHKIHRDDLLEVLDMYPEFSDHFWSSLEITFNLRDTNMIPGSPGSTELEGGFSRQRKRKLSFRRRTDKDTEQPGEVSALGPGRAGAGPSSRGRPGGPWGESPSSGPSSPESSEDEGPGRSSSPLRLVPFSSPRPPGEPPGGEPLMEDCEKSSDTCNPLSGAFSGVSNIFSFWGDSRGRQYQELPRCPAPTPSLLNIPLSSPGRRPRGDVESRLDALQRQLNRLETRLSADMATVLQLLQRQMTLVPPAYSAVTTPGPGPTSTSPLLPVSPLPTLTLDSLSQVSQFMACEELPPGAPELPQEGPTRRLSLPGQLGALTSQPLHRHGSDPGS

In the next data set the test system is CCI model rats. Put plainly: Chronic constriction injury (CCI) neuropathic pain model, mechanical withdrawal threshold. It counts as in vivo. To be noted: CCI SD rats; for Mechanical pain (withdrawal) threshold vs model group: single dose, 0.5-6 h. An excerpt: Exposing the sciatic nerve on male SD rats' (180-200 g) right hind leg, in the anterior segment where the sciatic nerve is about to bifurcate, use sterile chromic gut thread (No. 4, 0.15 mm in diameter) to ligate 4 loops loosely, with each loop 1-2 mm apart, and suture the muscle and skin to establish the chronic constriction injury (CCI) model. In the sham-operated group, only the sciatic nerve is exposed without ligation, and the muscle and skin are sutured. The mechanical withdrawal threshold is detected by electronic analgesia meter (IITC-2391) on the 7th day for 2 consecutive days.
The CCI model rats with stabilized mechanical withdrawal thresholds were randomly divided into three groups, named model group (model), pregabalin group (Pre, 30 mg/kg), BIOS-A-3 compound group (1 mg/kg), and were administered at 1 mL/100 g by gavage, and the same column of saline was gavaged in Sham and model group. The basic value was determined before drug administration, and the mechanical withdrawal thresholds were detected at 0.5 h, 1 h, 2 h, 4 h and 6 h after a single drug administration, and the p value was calculated by ANOVA with T-test.

[1] abbreviates: Average inhibition rate (%) on hERG channel.
Where [2] appears, read: Inhibition rate on hERG channel.

Chain of histamine H3 receptor (Q9Y5N1 whole entry, species assumed): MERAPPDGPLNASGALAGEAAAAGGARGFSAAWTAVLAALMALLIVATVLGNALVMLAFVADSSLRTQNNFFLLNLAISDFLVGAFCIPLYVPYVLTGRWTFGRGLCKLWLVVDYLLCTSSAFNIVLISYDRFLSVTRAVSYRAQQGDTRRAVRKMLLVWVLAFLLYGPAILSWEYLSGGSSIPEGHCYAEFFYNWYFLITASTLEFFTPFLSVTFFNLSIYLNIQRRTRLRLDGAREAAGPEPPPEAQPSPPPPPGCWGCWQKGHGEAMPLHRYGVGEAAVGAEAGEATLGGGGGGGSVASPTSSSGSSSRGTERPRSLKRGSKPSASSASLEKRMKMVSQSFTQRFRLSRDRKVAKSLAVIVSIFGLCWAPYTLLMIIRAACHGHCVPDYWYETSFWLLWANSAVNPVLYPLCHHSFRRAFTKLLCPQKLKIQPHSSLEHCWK

As to `O=C(Nc1ccc(OC2CCN(C3CCC3)CC2)cc1)NC1CCCC1` [BIOS-A-1, 1-(4-((1-cyclobutylpiperidin-4-yl)oxy)phenyl)-3-cyclopentylurea], at histamine H3 receptor, the inhibition at 0.005 µM turned out to be 77.4% and the inhibition at 0.05 µM was determined as 99.7%.

Consider `O=C(NCCN1CCOCC1)Nc1ccc(OC2CCN(C3CCC3)CC2)cc1` [BIOS-A-3, 1-(4-((1-cyclobutylpiperidin-4-yl)oxy)phenyl)-3-(2-morpholinoethyl)urea], for which, at histamine H3 receptor, the inhibition at 0.005 µM stood at 95.6% and the inhibition at 0.05 µM was 100%. Besides, on hERG channel (setting [1]), the inhibition at 10 µM was determined as 1.56%. Further, the “Mechanical pain (withdrawal) threshold vs model group” value with CCI model rats (1 mg/kg by gavage) is on record as “significantly increased the mechanical tingling threshold of CCI model rats”. In the data set with CCI model rats (1 mg/kg vs pregabalin 30 mg/kg), the “Acting time compared with pregabalin” value is “had a longer acting time”.

Take `O=C(NCCN1CCCCC1)Nc1ccc(OC2CCN(C3CCC3)CC2)cc1` [BIOS-A-4, 1-(4-((1-cyclobutylpiperidin-4-yl)oxy)phenyl)-3-(2-(piperidin-1-yl)ethyl)urea]: at histamine H3 receptor, the inhibition at 0.005 µM is 102% and the inhibition at 0.05 µM stood at 98.6%. In addition, the inhibition at 10 µM on hERG channel (setting [1]) is 0.96%.

With `O=C(NCCN1CCCC1)Nc1ccc(OC2CCN(C3CCC3)CC2)cc1` [BIOS-A-5, 1-(4-((1-cyclobutylpiperidin-4-yl)oxy)phenyl)-3-(2-(pyrrolidin-1-yl)ethyl)urea], on histamine H3 receptor, the inhibition at 0.005 µM turned out to be 101% and the inhibition at 0.05 µM amounted to 99.7%. Besides, the inhibition at 10 µM against hERG channel (setting [1]) was found to be 2.64%.

As for `C[C@@H]1CCCN1CCNC(=O)Nc1ccc(OC2CCN(C3CCC3)CC2)cc1` [BIOS-A-6, (R)-1-(4-((1-cyclobutylpiperidin-4-yl)oxy)phenyl)-3-(2-(2-methylpyrrolidin-1-yl)ethyl)urea], at histamine H3 receptor, the inhibition at 0.005 µM was determined as 81.3% and the inhibition at 0.05 µM worked out at 101%.

Turning to `O=C(NCCN1CCC(F)(F)CC1)Nc1ccc(OC2CCN(C3CCC3)CC2)cc1` [BIOS-A-7, 1-(4-((1-cyclobutylpiperidin-4-yl)oxy)phenyl)-3-(2-(4,4-difluoropiperidin-1-yl)ethyl)urea], at histamine H3 receptor, the inhibition at 0.005 µM came to 101% and the inhibition at 0.05 µM is 100%.

`O=C(NCCN1CCSCC1)Nc1ccc(OC2CCN(C3CCC3)CC2)cc1` [BIOS-A-8, 1-(4-((1-cyclobutylpiperidin-4-yl)oxy)phenyl)-3-(2-thiomorpholinoethyl)urea]: on histamine H3 receptor, the inhibition at 0.005 µM was 100% and the inhibition at 0.05 µM is 100%.

Consider `O=C(NCCN1CCC(O)CC1)Nc1ccc(OC2CCN(C3CCC3)CC2)cc1` [BIOS-A-9, 1-(4-((1-cyclobutylpiperidin-4-yl)oxy)phenyl)-3-(2-(4-hydroxypiperidin-1-yl)ethyl)urea], for which, at histamine H3 receptor, the inhibition at 0.005 µM came to 101% and the inhibition at 0.05 µM is 101%.

Take `CN1CCN(CCNC(=O)Nc2ccc(OC3CCN(C4CCC4)CC3)cc2)CC1` [BIOS-A-10, 1-(4-((1-cyclobutylpiperidin-4-yl)oxy)phenyl)-3-(2-(4-methylpiperazin-1-yl)ethyl)urea]: the inhibition at 0.005 µM on histamine H3 receptor is 99.7%. The inhibition at 0.05 µM at histamine H3 receptor is 101%. The results for the inhibition at 10 µM against hERG channel (setting [1]) and against hERG channel (setting [2]) were -2.92% and under 5%, respectively.

For `CC(C)N1CCN(CCNC(=O)Nc2ccc(OC3CCN(C4CCC4)CC3)cc2)CC1` [BIOS-A-11, 1-(4-((1-cyclobutylpiperidin-4-yl)oxy)phenyl)-3-(2-(4-isopropylpiperazin-1-yl)ethyl)urea], at histamine H3 receptor, the inhibition at 0.005 µM worked out at 100% and the inhibition at 0.05 µM turned out to be 100%. Further, the inhibition at 10 µM on hERG channel (setting [1]) was -1.22%. In addition, on hERG channel (setting [2]), the inhibition at 10 µM is under 5%.

Regarding `CN1CCCN(CCNC(=O)Nc2ccc(OC3CCN(C4CCC4)CC3)cc2)CC1` [BIOS-A-13, 1-(4-((1-cyclobutylpiperidin-4-yl)oxy)phenyl)-3-(2-(4-methyl-1,4-diazepan-1-yl)ethyl)urea], at histamine H3 receptor, the inhibition at 0.005 µM stood at 101% and the inhibition at 0.05 µM stood at 101%. Further, the inhibition at 10 µM at hERG channel (setting [1]) is -0.54%.

Take `O=C(NCCN1CCNCC1)Nc1ccc(OC2CCN(C3CCC3)CC2)cc1` [BIOS-A-14, 1-(4-((1-cyclobutylpiperidin-4-yl)oxy)phenyl)-3-(2-(piperazin-1-yl)ethyl)urea]: on histamine H3 receptor, the inhibition at 0.005 µM worked out at 100% and the inhibition at 0.05 µM amounted to 99.7%. For the same molecule, the inhibition at 10 µM against hERG channel (setting [1]) was -0.62%.

Regarding `O=C(NCCN1CCN(C2CCC2)CC1)Nc1ccc(OC2CCN(C3CCC3)CC2)cc1` [BIOS-A-15, 1-(2-(4-cyclobutylpiperazin-1-yl)ethyl)-3-(4-((1-cyclobutylpiperidin-4-yl)oxy)phenyl)urea], on histamine H3 receptor, the inhibition at 0.005 µM was 101% and the inhibition at 0.05 µM came to 99.9%. Moreover, the inhibition at 10 µM against hERG channel (setting [1]) is -0.55%.

Consider `CC(C)C[C@H](CN)CC(=O)O` [Pregabalin, reference compound], for which the “Mechanical pain (withdrawal) threshold vs model group” value in the data set with CCI model rats (30 mg/kg by gavage) is “only increased the mechanical sting threshold of CCI rats at 0.5 h and 1 h after administration”.
